Source: paper PMC12834051, “Improved synthesis and physicochemical characterization of the selective serotonin 2A receptor agonist 25CN-NBOH” (Beilstein Journal of Organic Chemistry, 2026)
In brackets after ≈: the same amount, converted by molar mass. Several values for one entry are separate records, joined by “and”; a condition that tells them apart may be missing. Equal entries are not always repeated. Entries after “also recorded” stand apart in the source; their conditions may differ. Structures can show the parent of a compound that is named as a salt. Where two headings read alike, the source gives them in different places.

What was measured:
[1] = Thermodynamic solubility in ultrapure water; type: physicochemical
Experimental: The solubility of 1·HCl in water was determined at 25 ± 0.5 °C by adding 30 mg to ultrapure water (3 mL) in screw-capped glass vials, giving a suspension where a solid precipitate could be observed at all timepoints. The samples were ultrasonicated for 3 min before being rotated in a temperature-controlled Incubator Hood TH 30 (Edmund Bühler, Bodelshausen, Germany). Sample aliquots of 600 µL were withdrawn after 30, 48, and 74 h and transferred to Eppendorf tubes. The samples were centrifuged at 19,000g for 15 min using a MiniSpin Plus (Eppendorf, Hamburg, Germany) and the supernatant filtered through a 0.45 µm PVDF filter (Ø = 4 mm, Phenomenex) with the first 400 µL being discarded. Samples were diluted with ultrapure water before measurement by a UV spectrophotometry at 241 nm using 10 mm micro quartz cuvettes (Hellma GmbH & Co. KG, Müllheim, Germany) and a Cary 60 UV–vis spectrophotometer (Agilent Technologies). Cary WinUV Simple Reads Application (Version 5.0.0, Agilent Technologies) was used for instrument control and data collection. The experiment was performed in triplicate.

[2] = Stability in solution (HPLC peak areas); type: physicochemical
Experimental: The stability of 1 was determined in 67 mM sodium phosphate buffer (pH 7.40, I = 0.18 M) and water at 25 ± 0.5 °C. The solutions comprising 0.2 mg/mL of 1·HCl were kept in a temperature-controlled incubator, and samples were measured by HPLC immediately after sample preparation as well as after one and four weeks for the experiments in phosphate buffer and after four weeks for experiments in ultrapure water. The stability of 1 was assessed based on peak areas. The experiment was performed in triplicate.
(§1) Samples from distribution coefficient and stability experiments were analyzed using an Agilent 1260 Infinity system (Agilent Technologies, Santa Clara, CA, USA) equipped with a column oven (Mikrolab Aarhus, Højbjerg, Denmark) and an Agilent 1100 series system (Agilent Technologies), respectively. Reversed-phase chromatography was performed using a Gemini C18 column (150 × 4.60 mm, 5 µm) with a Gemini C18 precolumn (4 × 3.00 mm, Phenomenex, Torrance, CA, USA). Detection was performed at 241 nm, the column temperature was 30 °C, the injection volume was 10 µL, and the flow rate was 1 mL/min. The mobile phase consisted of acetonitrile and 0.1% phosphoric acid in the ratios 35:65 and 25:75, v/v for the distribution coefficient and stability experiments, respectively. The ChemStation software (Version B.04.03, Agilent Technologies) was used for instrument control and data collection.

[3] = Apparent pKa by spectrophotometric titration (inForm, Sirius); type: physicochemical; details: for pKa: concentration-based, 30.8 °C, I = 0.172 M
Experimental: The molar absorption coefficients and apparent pKa values of 1 were determined by spectrophotometry using an inForm instrument from Sirius Analytical (Forest Row, UK). Molar absorption coefficients (absorbance), as a function of the wavelength (185–750 nm) and pH in the interval 2.0–12.0, were determined at 30.8 °C. A stock solution (5.0 mM) of 1·HCl in N-methyl-2-pyrrolidone (NMP) was added to 36 mL of an ionic strength-adjusted buffer solution (I = 0.172 M) containing acetate, phosphate, and sodium chloride while stirring at 300 rpm. The concentration of 1 during measurements ranged from 13–27 µM (three experiments each with three titrations were performed). Potentiometric titrations from high to low pH and low to high pH were performed by addition of 0.50 M HCl and 0.50 M NaOH, respectively, while UV–vis spectra were recorded using the fiber optic probe (10 mm light path) of the inForm diode array spectrometer. The instrument control and data analysis were performed using the inForm software Version 1.1.3.6 (Sirius Analytical, Forest Row, UK).

[4] = Octanol/buffer distribution coefficient (logD); type: physicochemical; details: 25 °C
Experimental: The pH-dependent octanol/buffer distribution coefficients of 1 were determined at 25 ± 0.5 °C using the following buffers: 50 mM sodium citrate (pH 5.00, I = 0.15 M), 67 mM sodium phosphate (pH 7.40, I = 0.18 M), and 50 mM sodium carbonate (pH 9.50, I = 0.15 M). The ionic strength of the buffers was adjusted by adding a calculated amount of potassium chloride. The octanol phases were saturated with the appropriate buffer solution, and vice versa, before the start of the experiment. Solutions of 2, 0.5, and 0.1 mg/mL of the drug in the buffer solutions at pH 5.00, 7.40, and 9.50, respectively, were prepared. The organic phase was hereafter added to the buffer solution in a ratio of 1:9 at pH 5.00 and 7.40 and 1:19 at pH 9.50. The samples were rotated for 24 h in a temperature-controlled incubator at 25 °C. The concentration of 1 in the buffer solution before and after partitioning, ci and cw, respectively, was determined by HPLC, from which distribution coefficients, D, were calculated according to
where Vw and Vo are the volume of the buffer solution and organic phase, respectively. Each experiment was conducted in triplicate.
as §1

[5] = buffer at pH 7.4; cited from earlier work
[6] = test system: MDCK; details: MDCK assay, cited from earlier work
[7] = in vivo, rodents; maximal brain exposure rapidly attained; cited from earlier work
[8] = pH 7.4, calculated species distribution

| Compound | pH of saturated solution in water ([1]; saturated solution of 1·HCl in ultrapure water) | solubility thermodynamic ([1]; ultrapure water, 25 °C, pH 6.24, water, thermodynamic from solid) [µg/mL] | kinetic solubility ([1]; water, preparing 5 mg/mL requires shaking for several minutes) | stability in solution in phosphate buffer ([2]; phosphate buffer pH 7.4, 25 °C, 4 weeks) | stability in water ([2]; water, 25 °C, 4 weeks (1 month)) | pKa ([3]; read-out: apparent pKa (phenol)) | pKa ([3]; read-out: apparent pKa (protonated amine)) | fraction present in the protonated form ([3]; pH 6.24, saturated solution of 1·HCl in ultrapure water) [%] | fraction present as the neutral species [3, 8] [%] | fraction present in the protonated form [3, 8] | fraction present as the neutral species ([3]; pH 9.5, calculated species distribution) [%] | logD at 24 h ([4]; pH 5.00, octanol/50 mM sodium citrate) | logD at 24 h ([4]; pH 7.4, pH 7.40, octanol/67 mM sodium phosphate) | logD at 24 h ([4]; pH 9.5, pH 9.50, octanol/50 mM sodium carbonate) | solubility in buffer [5] [µg/mL] | permeability apical–basal ([6]; apical–basal) [×10⁻⁶ cm/s] | permeability basal–apical ([6]; basal–apical) [×10⁻⁶ cm/s] | BBB permeability [7] |
| --- | --- | --- | --- | --- | --- | --- | --- | --- | --- | --- | --- | --- | --- | --- | --- | --- | --- | --- |
| COc1cc(CCNCc2ccccc2O)c(OC)cc1C#N [1·HCl, 25CN-NBOH·HCl] | 6.24 ± 0.01 and 6.24 | 8500 ± 300 | low | stable | could not detect additional species; also recorded: stable |  |  |  |  |  |  |  |  |  |  |  |  |  |
| COc1cc(CCNCc2ccccc2O)c(OC)cc1C#N [Compound 1, 25CN-NBOH] |  |  |  |  |  | 10.7 ± 0.1 | 8.4 ± 0.1 | > 99 | ~10 | approximately 90% | 87 | -0.76 ± 0.01 | 1.59 ± 0.02 | 2.58 ± 0.01 | 400 (≈ 1280 µM) | 29 | 20 | excellent BBB permeability |
